US12630505B2, “Alkyne compound, vitamin D compound, analytical method, and production method” (Tokyo University of Agriculture and Technology, priority 2021, dated 2026)

Columns and labels:
[1] = test system: Antibody column: 1,25-(OH)2-vitamin D3/D2 Immuno Tube Extraction Kit; assay: Antibody column fractionation of pooled serum, LC-MS/MS of adsorbed and non-adsorbed fractions; type: binding; conditions: SRM chromatograms FIG. 5B/5C
Procedure: (4) Sample Pretreatment • (4-1) In a microtube, 200 μL of a calibrator or a pooled serum, 180 μL of IS, and 20 μL of additives were placed, and the whole was stirred to prepare a sample. To the calibrator, 10 μL of an aqueous 1α,25-(OH)2D3 solution (1 ng/mL) and 10 μL of an aqueous 1α,25-(OH)2D3-^13C3 solution (1 ng/mL) were added as the additives. To the pooled serum, 10 μL of an aqueous 1α,25-(OH)2D3-^13C3 solution (1 ng/mL) and 10 μL of water were added. • (4-2) The sample was loaded on an antibody column, and the column sealed with a cap was gently shaken. • (4-3) The sample was rotated and mixed at room temperature for 1 hour with a rotator to be subjected to antigen-antibody reaction. • (4-4) The outlet of the antibody column was released, and the column was centrifuged at 550 g for 2 minutes to collect a non-adsorbed fraction. • (4-5) Into the column, 500 μL of WASHSOL supplied with the antibody column kit was added, and the column was centrifuged at 550 g for 2 minutes. […]

[2] = test system: Antibody column: 1,25-(OH)2-vitamin D3/D2 Immuno Tube Extraction Kit; assay: Separation measurement of 4β,25-(OH)2D3: antibody column fractionation of spiked vitamin D free serum, LC-MS/MS of fractions; type: binding; conditions: vitamin D free serum with 4β,25-(OH)2D3 at 50 pg/mL; SRM chromatograms FIG. 4A/4B
Text: • Standard: 4β,25-(OH)2D3 (vitamin D compound 54 produced in Example 1) • Stable isotope-labeled compound: 4β,25-(OH)2D3-d4 (vitamin D compound 52 produced in Example 1) • Vitamin D free serum: MSG1000 (Golden West Biologicals) • Antibody column: 1,25-(OH)2-vitamin D3/D2 Immuno Tube (trademark) Extraction Kit (Immunodiagnostik) • SLE column: Isolute SLE+ column (Biotage) • Derivatization reagent (DAP-PA): JeoQuant Kit for LC-MS/MS Analysis of Vitamin D Metabolites (JEOL) (2) IS (Internal Standard) Solution
An aqueous 4β,25-(OH)2D3-d4 solution was prepared at the concentration shown below.
(3) Sample Pretreatment • (3-1) In a microtube, 200 μL of a vitamin D free serum prepared to have a 4β,25-(OH)2D3 concentration of 50 pg/mL and 30 μL of IS were placed to prepare a sample. • (3-2) The sample was loaded on an antibody column, and the column sealed with a cap was gently shaken. • (3-3) The sample was rotated and mixed at room temperature for 1 hour with a rotator to be subjected to antigen-antibody reaction. • (3-4) The outlet of the antibody column was released, and the column was centrifuged at 550 g for 2 minutes to collect a non-adsorbed fraction. • (3-5) Into the column, 500 μL of WASHSOL supplied with the antibody column kit was added, and the column was centrifuged at 550 g for 2 minutes. […]

Structure (SMILES)	Fraction of the antibody column in which the compound was collected [1]	Fraction of the antibody column that contains the compound [2]
C=C1/C(=C\C=C2/CCC[C@]3(C)[C@@H]([C@H](C)CCCC(C)(C)O)CC[C@@H]23)C[C@@H](O)C[C@@H]1O [1α,25(OH)2D3, 1α,25-dihydroxyvitamin D3]	collected in the adsorbed fraction	–
C=C1CC[C@H](O)[C@H](O)/C1=C/C=C1\CCC[C@]2(C)[C@@H]([C@H](C)CCCC(C)(C)O)CC[C@@H]12 [4β,25-(OH)2D3, 4β,25-dihydroxyvitamin D3]	collected in the non-adsorbed fraction	only in the non-adsorbed fraction
